Reference: paper PMC3875372 (Biochemistry, 2013)

How the values were obtained:
ecDHFR = details: cited from earlier work
[1] = standards; 2-aminopyridine λex 295 nm, anthracene λex 340 nm; cited from earlier work
[2] = test system: modified DHFRs (biphenyl-phenylalanines at position 115); assay: Inhibition of the modified DHFRs; type: biochemical, E. coli; details: all four DHFRs modified at position 115

4-biphenyl-L-phenylalanine
effect on the rate at which ecDHFR consumed NADPH (ecDHFR; replacement of Ile115, in the presence of dihydrofolate): no significant effect

Nc1ccccn1 [2-aminopyridine]
ΦF of quantum yield standard [1]: 0.60

c1ccc2cc3ccccc3cc2c1 [anthracene]
ΦF of quantum yield standard [1]: 0.27

CN(Cc1cnc2nc(N)nc(N)c2n1)c1ccc(C(=O)N[C@@H](CCC(=O)O)C(=O)O)cc1 [methotrexate]
inhibition of the modified enzymes compared with wild type [2]: about the same extent as wild type

L-(7-hydroxycoumarin-4-yl)ethylglycine
rate of NADPH consumption relative to wild type (ecDHFR; position 115 of ecDHFR): about 25%
